Reference: article PMC8539695, “Promising Natural Compounds against Flavivirus Proteases: Citrus Flavonoids Hesperetin and Hesperidin” (Plants, 2021)

Experiments:
[1] = target: T1, WNV NS2B/NS3^pro (West Nile virus, UniProt P06935); assay: biochemical; type: binding
T1 construct: tryptophan residues in the NS2B cofactor domain and in the NS3 protease domain; inferred from Ni-NTA purification and the pET-15b vector; made in house; host or cells: E. coli Lemo (DE3)

[2] = target: T2, YFV NS2B/NS3^pro (Yellow fever virus, UniProt Q1X881); assay: biochemical; type: binding
[3] = target: T1, WNV NS2B/NS3^pro; assay: biochemical; settings: for inhibition at 10 µM: read-out: Inhibition of protease activity, primary inhibition test
[4] = target: T3, DENV2 NS2B/NS3^pro (Dengue virus type 2, UniProt P14340); assay: biochemical; type: biochemical
T3 construct: tryptophan residues in the NS2B cofactor domain and in the NS3 protease domain; inferred from Ni-NTA purification and the pET-15b vector; made in house; host or cells: E. coli Lemo (DE3)
T3 sequence (P14340 with tags, fused parts or gaps I1442G/L1443G/I1444G/R1445G/T1446S/DEL1448-1472/K1473G/Q1474G/R1475G): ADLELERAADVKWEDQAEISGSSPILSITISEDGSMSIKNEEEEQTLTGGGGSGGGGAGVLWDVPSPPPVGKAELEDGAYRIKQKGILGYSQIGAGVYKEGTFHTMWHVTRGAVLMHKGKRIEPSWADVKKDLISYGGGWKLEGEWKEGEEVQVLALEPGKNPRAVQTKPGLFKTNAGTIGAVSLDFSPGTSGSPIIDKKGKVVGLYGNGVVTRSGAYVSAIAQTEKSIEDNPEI

[5] = target: T2, YFV NS2B/NS3^pro; assay: biochemical; settings: for inhibition at 10 µM: read-out: Inhibition of protease activity, primary inhibition test
[6] = target: T3, DENV2 NS2B/NS3^pro; assay: biochemical; type: binding
[7] = system: ZIKV NS2B/NS3^pro; design: method as in PMID 33661906; settings: ZIKV NS2B/NS3pro, cited from earlier work
[8] = target: ZIKV NS2B/NS3^pro; design: method as in PMID 33661906; settings: ZIKV NS2B/NS3pro, value ± STD; cited from earlier work

T1 sequence (P06935 1502-1679 limits assumed): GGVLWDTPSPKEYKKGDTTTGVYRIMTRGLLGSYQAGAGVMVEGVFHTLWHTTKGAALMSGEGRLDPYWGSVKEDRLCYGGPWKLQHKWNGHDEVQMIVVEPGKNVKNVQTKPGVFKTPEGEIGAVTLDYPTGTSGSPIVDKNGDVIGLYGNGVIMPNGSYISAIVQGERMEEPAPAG
T1 sequence (P06935 1424-1463 partner limits assumed): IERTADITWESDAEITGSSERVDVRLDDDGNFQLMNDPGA
T2 sequence (Q1X881 1485-1665 limits assumed): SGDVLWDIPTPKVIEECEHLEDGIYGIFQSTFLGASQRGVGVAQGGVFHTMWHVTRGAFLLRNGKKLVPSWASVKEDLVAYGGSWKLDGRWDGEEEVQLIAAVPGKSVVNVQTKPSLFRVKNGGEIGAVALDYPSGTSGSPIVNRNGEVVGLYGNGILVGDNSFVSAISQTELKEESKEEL
T2 sequence (Q1X881 1407-1446 partner limits assumed): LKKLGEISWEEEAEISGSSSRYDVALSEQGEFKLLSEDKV

Compound	Kd [1]	Red edge excitation shift (REES) of the protease maximum fluorescence peak [1]	Kd [2]	Red edge excitation shift (REES) of the protease maximum fluorescence peak [2]	Concentration that inhibited 100% of the protease activity [3]	IC50 [3]	Inhibition Mode [3]	LE (ligand efficiency) [3]	inhibition at 10 µM [3]	Concentration that inhibited 100% of the protease activity [4]	IC50 [4]	Inhibition Mode [4]	LE (ligand efficiency) [4]	Concentration that inhibited 100% of the protease activity [5]	IC50 [5]	Inhibition Mode [5]	LE (ligand efficiency) [5]	inhibition at 10 µM [5]	Kd [6]	Red edge excitation shift (REES) of the protease maximum fluorescence peak [6]	also measured
COc1ccc(C2CC(=O)c3c(O)cc(OC4O[C@H](CO[C@@H]5O[C@@H](C)[C@H](O)[C@@H](O)[C@H]5O)[C@@H](O)[C@H](O)[C@H]4O)cc3O2)cc1O (some centres unmarked) [HSD, 3′,5,7-trihydroxy-4′-methoxy-flavanone-7-rhamnoglucoside]	19.5 ± 2.8 µM	no shift	29.5 ± 2.8 µM	no shift	120 µM	50.7 ± 8.3 µM	noncompetitive	0.14	~30%	140 µM	55.7 ± 2.5 µM	noncompetitive	0.14	140 µM	67.7 ± 7.5 µM	noncompetitive	0.13	~30%	20.9 ± 2.4 µM	no shift	
COc1ccc(C2CC(=O)c3c(O)cc(O)cc3O2)cc1O (centres unmarked) [HST, 3′,5,7-trihydroxy-4′-methoxyflavanone]	13.5 ± 2 µM	15 nm	12.3 ± 2.2 µM	22 nm	80 µM	4.27 µM	noncompetitive	0.34	~70%	140 µM	4.7 ± 0.8 µM	noncompetitive	0.34	80 µM	2.04 µM	noncompetitive	0.36	~80%	18.7 ± 2.7 µM	11 nm	IC50 ([7]; value ± STD): 12.6 ± 1.3 µM; Inhibition Mode [7]: noncompetitive; pIC50 [7]: 4.90; Kd [8]: 17.8 ± 2.9 µM
